Laboratory results taken from US20240327353A1.
Where two headings read alike, the source gives them in different places. Values belong to the compound of their own block, whether it stands above or below them.

Key:
α1B-adrenergic receptor [1] = target: T1, α1B-adrenergic receptor (Homo sapiens, UniProt P35368)
T1 sequence (P35368 1-520): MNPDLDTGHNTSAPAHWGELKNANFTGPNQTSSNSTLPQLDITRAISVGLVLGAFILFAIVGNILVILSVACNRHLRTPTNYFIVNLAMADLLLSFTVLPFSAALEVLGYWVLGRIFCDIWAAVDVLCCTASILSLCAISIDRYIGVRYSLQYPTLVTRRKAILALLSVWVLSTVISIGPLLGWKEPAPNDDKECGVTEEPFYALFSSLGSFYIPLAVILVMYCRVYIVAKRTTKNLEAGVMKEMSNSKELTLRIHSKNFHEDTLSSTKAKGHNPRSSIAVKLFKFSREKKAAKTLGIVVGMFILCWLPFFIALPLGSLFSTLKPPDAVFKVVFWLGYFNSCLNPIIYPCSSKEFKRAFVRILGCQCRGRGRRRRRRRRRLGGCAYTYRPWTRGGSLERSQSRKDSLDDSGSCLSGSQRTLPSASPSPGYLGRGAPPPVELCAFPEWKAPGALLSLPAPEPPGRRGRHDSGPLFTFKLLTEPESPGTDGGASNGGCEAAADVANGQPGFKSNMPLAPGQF

human wild-type 5-HT2C = human wild-type 5-HT2C (Homo sapiens, UniProt P28335); assay: IP-One HTRF IP1 accumulation assay
α1A-adrenergic receptor [2] = target: T2, α1A-adrenergic receptor (Homo sapiens, UniProt P35348)
T2 sequence (P35348 1-466): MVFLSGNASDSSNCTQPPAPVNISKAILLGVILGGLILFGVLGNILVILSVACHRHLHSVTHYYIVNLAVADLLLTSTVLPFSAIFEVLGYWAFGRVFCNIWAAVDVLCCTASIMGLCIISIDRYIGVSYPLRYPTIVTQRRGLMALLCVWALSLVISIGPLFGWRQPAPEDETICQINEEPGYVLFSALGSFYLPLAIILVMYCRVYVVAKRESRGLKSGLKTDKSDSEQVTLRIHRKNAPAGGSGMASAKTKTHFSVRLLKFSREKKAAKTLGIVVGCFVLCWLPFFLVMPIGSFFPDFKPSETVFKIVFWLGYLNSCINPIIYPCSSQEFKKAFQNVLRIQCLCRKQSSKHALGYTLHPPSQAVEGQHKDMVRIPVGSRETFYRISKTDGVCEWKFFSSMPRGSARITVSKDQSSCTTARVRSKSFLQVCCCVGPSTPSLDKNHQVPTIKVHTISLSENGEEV

5-HT2AR = target: T3, 5-HT2AR (Homo sapiens, UniProt P28223); assay: Radioligand binding (competitive displacement and saturation), cell membranes; settings: displacement of [^3H]ketanserin; mean of n independent experiments, ± SD where n ≥ 5
T3 construct: host or cells: HEK293, transient
Description: (§1) Transfections were performed for 48 hours.

H1R = target: T4, H1R (Homo sapiens, UniProt P35367); assay: as above
T4 construct: host or cells: CHO, transient
Description: as §1

G238S^5.42 5-HT2AR = target: T5, G238S^5.42 5-HT2AR (Homo sapiens, UniProt P28223, G238S); assay: IP1 accumulation assay at point-mutated 5-HT2AR; format: cell-based; settings: in the presence of 1 μM 5-HT; ± SD
T5 construct: expressed in transfected cells; host or cells: clonal cells
Description: as §1

F213K^4.63 5-HT2AR = target: T6, F213K^4.63 5-HT2AR (Homo sapiens, UniProt P28223, F213K); assay: IP1 accumulation assay at point-mutated 5-HT2AR; format: cell-based; settings: in the presence of 1 μM 5-HT; ± SD
T6 construct: expressed in transfected cells; host or cells: clonal cells
Description: as §1

V235M^5.39 5-HT2AR = target: T7, V235M^5.39 5-HT2AR (Homo sapiens, UniProt P28223, V235M); assay: IP1 accumulation assay at point-mutated 5-HT2AR; format: cell-based; settings: in the presence of 1 μM 5-HT; ± SD
T7 construct: expressed in transfected cells; host or cells: clonal cells
Description: as §1

I210V^4.60 5-HT2AR = target: T8, I210V^4.60 5-HT2AR (Homo sapiens, UniProt P28223, I210V); assay: IP1 accumulation assay at point-mutated 5-HT2AR; format: cell-based; settings: in the presence of 1 μM 5-HT; ± SD
T8 construct: expressed in transfected cells; host or cells: clonal cells
Description: as §1

S242A^5.46 5-HT2AR = target: T9, S242A^5.46 5-HT2AR (Homo sapiens, UniProt P28223, S242A); assay: IP1 accumulation assay at point-mutated 5-HT2AR; format: cell-based; settings: in the presence of 1 μM 5-HT; ± SD
T9 construct: expressed in transfected cells; host or cells: clonal cells
Description: as §1

human wild-type 5-HT2A = human wild-type 5-HT2A (Homo sapiens, UniProt P28223); assay: IP-One HTRF IP1 accumulation assay; settings: antagonism of IP1 accumulation in the presence of 1 μM 5-HT; ± SD
male C57BL/6J mice [3] = assay: (±)-DOI-elicited head twitch response; settings: for head twitch response elicited by (±)-DOI: 1 mg*kg^−1 (±)-DOI s.c., pretreatment s.c., every dose tested (PIMA, (2S,4R)-2k 0.3 or 3 mg kg^−1, (2R,4R)-3h 3.0 or 5.6 mg kg^−1)
5-HT1A = target: T10, 5-HT1A (Homo sapiens, UniProt P08908); assay: Radioligand binding, cell membranes
T10 construct: host or cells: HEK293T, transient
T10 sequence (P08908 1-422): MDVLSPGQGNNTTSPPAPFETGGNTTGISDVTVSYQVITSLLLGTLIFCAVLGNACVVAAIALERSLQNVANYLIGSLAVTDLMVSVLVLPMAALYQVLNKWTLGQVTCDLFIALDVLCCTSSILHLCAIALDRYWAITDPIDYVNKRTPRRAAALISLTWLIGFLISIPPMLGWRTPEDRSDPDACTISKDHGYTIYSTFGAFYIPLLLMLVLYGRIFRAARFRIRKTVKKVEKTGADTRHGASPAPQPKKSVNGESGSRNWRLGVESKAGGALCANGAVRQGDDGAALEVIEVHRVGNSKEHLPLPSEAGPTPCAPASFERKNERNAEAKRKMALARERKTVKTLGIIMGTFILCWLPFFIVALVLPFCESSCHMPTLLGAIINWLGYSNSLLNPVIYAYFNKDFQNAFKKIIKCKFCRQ
Description: as §1

5-HT7 = 5-HT7 (Homo sapiens, UniProt P34969); assay: Radioligand binding, cell membranes
Description: as §1

D3 = D3 (Homo sapiens, UniProt P35462); assay: Radioligand binding, cell membranes
Description: as §1

D2L = D2L (Homo sapiens, UniProt P14416); assay: Radioligand binding, cell membranes
Description: as §1

C322K^6.34 5-HT2AR = target: T11, C322K^6.34 5-HT2AR (Homo sapiens, UniProt P28223, C322K); assay: IP1 accumulation assay, inverse agonism at constitutively activated receptor; format: cell-based
T11 construct: expressed in transfected cells; host or cells: clonal cells
Description: as §1

human wild-type H1R = human wild-type H1R (Homo sapiens, UniProt P35367); assay: IP-One HTRF IP1 accumulation assay; settings: competitive antagonism of histamine-stimulated IP1 accumulation (10 μM histamine)
male C57BL/6J mice [4] = assay: Locomotor activity, compound alone (open field); format: in vivo; settings: 3 mg*kg^−1 s.c. (FIG. 3C)
α1B-adrenergic receptor [5] = target: T1, α1B-adrenergic receptor; assay: biochemical
α1A-adrenergic receptor [6] = target: T2, α1A-adrenergic receptor; assay: biochemical
human wild-type 5-HT2B = human wild-type 5-HT2B (Homo sapiens, UniProt P41595); assay: IP-One HTRF IP1 accumulation assay
5-HT2BR = 5-HT2BR (Homo sapiens, UniProt P41595)
male C57BL/6J mice [7] = assay: Locomotor activity after (±)-DOI (open field); settings: pretreatment 0.3 mg*kg^−1 s.c., compared to saline pretreatment (FIG. 3B)
W158I^4.56 H1R [8] = target: T12, W158I^4.56 H1R (Homo sapiens, UniProt P35367, W158I)
D231F^5.35 5-HT2AR = D231F^5.35 5-HT2AR (Homo sapiens, UniProt P28223, D231F); assay: Exploratory saturation radioligand binding at point-mutated 5-HT2AR; settings: membranes of transfected HEK293 cells (FIGS. 14A-14D)
W158I^4.56 H1R [9] = target: T12, W158I^4.56 H1R; remark: listed apart in the source
[10] = [^3H]5-CT, mean of n independent experiments

T11 sequence (P28223 whole entry C322K): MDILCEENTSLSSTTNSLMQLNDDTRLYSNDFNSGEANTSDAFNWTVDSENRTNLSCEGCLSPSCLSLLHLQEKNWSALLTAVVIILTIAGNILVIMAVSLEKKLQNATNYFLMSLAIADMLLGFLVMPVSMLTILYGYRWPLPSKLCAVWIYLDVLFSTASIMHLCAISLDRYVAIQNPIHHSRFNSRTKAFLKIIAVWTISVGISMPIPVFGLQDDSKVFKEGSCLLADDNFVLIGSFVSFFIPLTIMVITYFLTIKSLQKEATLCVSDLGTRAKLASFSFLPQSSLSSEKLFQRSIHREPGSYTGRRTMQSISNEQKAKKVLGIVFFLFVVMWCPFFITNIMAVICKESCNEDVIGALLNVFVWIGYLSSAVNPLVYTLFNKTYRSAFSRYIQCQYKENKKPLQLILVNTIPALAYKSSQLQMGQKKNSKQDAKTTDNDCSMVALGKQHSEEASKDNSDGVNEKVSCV
D3, sequence (P35462 whole entry): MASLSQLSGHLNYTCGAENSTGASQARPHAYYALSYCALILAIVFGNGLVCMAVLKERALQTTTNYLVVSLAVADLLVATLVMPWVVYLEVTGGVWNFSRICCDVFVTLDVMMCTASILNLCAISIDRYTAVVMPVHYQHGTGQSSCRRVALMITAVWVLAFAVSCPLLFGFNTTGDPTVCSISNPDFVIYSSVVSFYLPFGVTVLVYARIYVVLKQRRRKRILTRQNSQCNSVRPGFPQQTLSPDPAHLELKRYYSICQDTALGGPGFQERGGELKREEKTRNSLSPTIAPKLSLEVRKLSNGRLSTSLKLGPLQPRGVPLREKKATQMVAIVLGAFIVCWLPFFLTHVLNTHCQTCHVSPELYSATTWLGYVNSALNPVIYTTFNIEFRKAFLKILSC
human wild-type H1R, sequence (P35367 whole entry): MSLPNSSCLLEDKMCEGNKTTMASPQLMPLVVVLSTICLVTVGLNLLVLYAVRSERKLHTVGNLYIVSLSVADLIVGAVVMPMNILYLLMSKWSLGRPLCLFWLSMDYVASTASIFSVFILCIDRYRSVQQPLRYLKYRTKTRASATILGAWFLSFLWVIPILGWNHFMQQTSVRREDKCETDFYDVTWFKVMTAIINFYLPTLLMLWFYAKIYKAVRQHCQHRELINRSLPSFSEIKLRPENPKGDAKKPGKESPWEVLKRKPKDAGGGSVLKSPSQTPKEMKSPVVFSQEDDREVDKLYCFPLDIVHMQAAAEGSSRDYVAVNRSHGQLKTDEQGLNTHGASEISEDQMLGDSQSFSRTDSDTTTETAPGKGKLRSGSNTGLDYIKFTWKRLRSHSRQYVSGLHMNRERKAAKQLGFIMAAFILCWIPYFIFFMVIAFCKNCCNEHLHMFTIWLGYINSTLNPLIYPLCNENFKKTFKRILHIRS
T4 sequence (P35367 whole entry): as above
D2L, sequence (P14416 whole entry): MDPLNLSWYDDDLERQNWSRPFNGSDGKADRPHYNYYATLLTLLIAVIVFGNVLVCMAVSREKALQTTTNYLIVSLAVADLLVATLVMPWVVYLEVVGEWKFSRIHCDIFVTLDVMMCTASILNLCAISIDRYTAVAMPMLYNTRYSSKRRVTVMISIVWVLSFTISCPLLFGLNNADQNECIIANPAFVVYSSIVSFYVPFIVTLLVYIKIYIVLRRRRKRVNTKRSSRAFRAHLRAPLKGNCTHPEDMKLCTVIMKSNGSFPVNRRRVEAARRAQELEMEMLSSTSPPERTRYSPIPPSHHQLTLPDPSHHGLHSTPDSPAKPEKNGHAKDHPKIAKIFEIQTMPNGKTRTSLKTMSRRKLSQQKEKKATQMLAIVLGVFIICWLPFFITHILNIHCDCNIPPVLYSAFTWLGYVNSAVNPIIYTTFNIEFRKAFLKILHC
5-HT7, sequence (P34969 1-445 isoform P34969-2): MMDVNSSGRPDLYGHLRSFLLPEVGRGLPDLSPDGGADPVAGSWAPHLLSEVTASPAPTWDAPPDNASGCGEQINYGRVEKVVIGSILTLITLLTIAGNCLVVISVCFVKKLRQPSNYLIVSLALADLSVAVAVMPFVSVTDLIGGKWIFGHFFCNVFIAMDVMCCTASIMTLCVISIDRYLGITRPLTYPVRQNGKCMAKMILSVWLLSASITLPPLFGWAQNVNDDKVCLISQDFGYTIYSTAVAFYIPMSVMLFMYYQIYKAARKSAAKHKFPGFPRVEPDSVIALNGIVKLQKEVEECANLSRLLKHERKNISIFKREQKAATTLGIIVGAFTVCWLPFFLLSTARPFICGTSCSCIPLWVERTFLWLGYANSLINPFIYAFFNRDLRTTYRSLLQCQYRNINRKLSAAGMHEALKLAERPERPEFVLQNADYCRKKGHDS
T12 sequence (P35367 whole entry W158I): as the sequence (P35367 whole entry) above, with W158I counted along it
T8 sequence (P28223 whole entry I210V): as the sequence (P28223 whole entry C322K) above, with I210V, K322C counted along it
T6 sequence (P28223 whole entry F213K): as the sequence (P28223 whole entry C322K) above, with F213K, K322C counted along it
T3 sequence (P28223 whole entry): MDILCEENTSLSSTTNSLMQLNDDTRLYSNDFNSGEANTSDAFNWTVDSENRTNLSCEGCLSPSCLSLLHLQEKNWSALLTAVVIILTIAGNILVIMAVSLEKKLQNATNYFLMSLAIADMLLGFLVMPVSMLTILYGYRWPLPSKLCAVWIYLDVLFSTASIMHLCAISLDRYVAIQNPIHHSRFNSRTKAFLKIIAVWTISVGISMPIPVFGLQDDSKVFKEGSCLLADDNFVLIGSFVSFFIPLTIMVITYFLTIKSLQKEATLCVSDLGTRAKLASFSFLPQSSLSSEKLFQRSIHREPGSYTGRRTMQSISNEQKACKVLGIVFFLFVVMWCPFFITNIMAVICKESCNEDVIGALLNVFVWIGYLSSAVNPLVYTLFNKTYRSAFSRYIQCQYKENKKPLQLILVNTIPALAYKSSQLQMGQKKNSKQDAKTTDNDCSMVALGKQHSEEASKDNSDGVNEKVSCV
human wild-type 5-HT2A, sequence (P28223 whole entry): as above
human wild-type 5-HT2B, sequence (P41595 whole entry): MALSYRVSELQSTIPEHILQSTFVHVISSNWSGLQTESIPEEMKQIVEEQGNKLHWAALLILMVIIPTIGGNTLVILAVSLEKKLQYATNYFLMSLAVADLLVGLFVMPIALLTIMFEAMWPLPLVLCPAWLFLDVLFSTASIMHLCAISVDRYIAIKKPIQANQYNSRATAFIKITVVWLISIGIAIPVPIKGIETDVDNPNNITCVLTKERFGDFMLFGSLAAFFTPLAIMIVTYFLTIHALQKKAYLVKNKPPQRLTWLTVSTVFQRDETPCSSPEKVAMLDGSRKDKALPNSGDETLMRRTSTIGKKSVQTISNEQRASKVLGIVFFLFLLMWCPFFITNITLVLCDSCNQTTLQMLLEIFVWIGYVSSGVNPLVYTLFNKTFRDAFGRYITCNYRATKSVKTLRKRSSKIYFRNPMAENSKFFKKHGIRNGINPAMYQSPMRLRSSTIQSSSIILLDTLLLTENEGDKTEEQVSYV
5-HT2BR, sequence (P41595 whole entry): as above
D231F^5.35 5-HT2AR, sequence (P28223 whole entry D231F): as the sequence (P28223 whole entry C322K) above, with D231F, K322C counted along it
human wild-type 5-HT2C, sequence (P28335 33-458): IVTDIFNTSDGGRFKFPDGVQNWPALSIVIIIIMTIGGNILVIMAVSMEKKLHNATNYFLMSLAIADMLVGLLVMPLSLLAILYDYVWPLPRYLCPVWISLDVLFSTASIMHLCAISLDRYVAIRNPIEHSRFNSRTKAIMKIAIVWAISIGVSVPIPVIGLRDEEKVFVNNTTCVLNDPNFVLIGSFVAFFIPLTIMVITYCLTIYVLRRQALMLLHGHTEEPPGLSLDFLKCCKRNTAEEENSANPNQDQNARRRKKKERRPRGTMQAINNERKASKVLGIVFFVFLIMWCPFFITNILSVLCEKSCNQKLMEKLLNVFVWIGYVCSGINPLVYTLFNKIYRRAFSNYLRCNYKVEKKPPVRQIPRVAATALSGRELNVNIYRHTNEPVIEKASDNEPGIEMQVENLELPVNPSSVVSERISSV
T5 sequence (P28223 whole entry G238S): as the sequence (P28223 whole entry C322K) above, with G238S, K322C counted along it
T7 sequence (P28223 whole entry V235M): as the sequence (P28223 whole entry C322K) above, with V235M, K322C counted along it
T9 sequence (P28223 whole entry S242A): as the sequence (P28223 whole entry C322K) above, with S242A, K322C counted along it

Ki (α1B-adrenergic receptor [5]): 3240 nM
Ki (α1A-adrenergic receptor [6]): 10.2 nM
Ki (5-HT1A; read-out: pKi 5-HT1A (converted)): > 10000 nM
Ki (5-HT7; read-out: pKi 5-HT7 (converted)): 41.7 nM
Ki (D3; read-out: pKi D3 (converted)): 120 nM
Ki (D2L; read-out: pKi D2L (converted)): 69.2 nM
inverse agonist efficacy at C322K^6.34 5-HT2ARs (reduction of basal IP1 accumulation) (C322K^6.34 5-HT2AR; below basal): ~50%
SMILES: CN(C)[C@@H]1Cc2ccccc2[C@@H](c2cccc(Br)c2)C1 (single isomer, unassigned) [(2S,4R)-2a, Trans-4-(3-bromophenyl)-N, N-dimethyl-1,2,3,4-tetrahydronaphthalen-2-amine]

Kb (human wild-type 5-HT2B): 1380 nM
pKi H1R (H1R; displacement of [^3H]mepyramine, mean of n independent experiments, ± SD where n ≥ 5): 5.50^(2)
Ki (5-HT2BR): 437 nM
locomotor activity (distance traveled) of mice given 1 mg*kg^−1 DOI (male C57BL/6J mice [7]): locomotor suppression
pKb at H1Rs (human wild-type H1R): little, if any, antagonism
locomotor activity, compound administered alone (male C57BL/6J mice [4]): suppresses locomotor activity
SMILES: CC(C)COc1ccc(CNC(=O)N(Cc2ccc(F)cc2)C2CCN(C)CC2)cc1 [PIMA, pimavanserin, reference compound]
attenuation of head twitch response compared with the same dose of (2S,4R)-2k (male C57BL/6J mice [3]; 0.3 mg*kg^−1 s.c.): significantly more effective
head twitch response elicited by (±)-DOI (male C57BL/6J mice [3]): significantly attenuated the head twitch response

The remaining lines, values behind:

SMILES: CN(C)[C@@H]1Cc2ccccc2[C@H](c2cccc(-c3cccc(F)c3)c2)C1 (single isomer, unassigned) [(2R,4R)-3h, Cis-4-(3′-fluoro-[1,1′-biphenyl]-3-yl)-N,N-dimethyl-1,2,3,4-tetrahydronaphthalen-2-amine]
Ki (α1B-adrenergic receptor [1]): 794 nM
inverse agonist efficacy (Imax) at 5-HT2CRs (human wild-type 5-HT2C): exhibits inverse agonism
Ki (α1A-adrenergic receptor [2]): 741 nM
pKi 5-HT2AR (5-HT2AR): 9.46 ± 0.34
pKi H1R (H1R): 7.31 ^(2) 7.39-7.23 8.96^(3) 9.11-8.88 6.20^(2) 6.23-6.18 6.30 ± 0.10^(5) 6.42-6.14
pKb G238S^5.42 5-HT2AR (G238S^5.42 5-HT2AR): 4.59 ± 0.48
pKb F213K^4.63 5-HT2AR (F213K^4.63 5-HT2AR): 7.04 ± 0.17
pKb V235M^5.39 5-HT2AR (V235M^5.39 5-HT2AR): 7.02 ± 0.26
pKb I210V^4.60 5-HT2AR (I210V^4.60 5-HT2AR): 7.18 ± 0.22
pKb S242A^5.46 5-HT2AR (S242A^5.46 5-HT2AR): 6.85 ± 0.36
pKb Wild type 5-HT2AR (human wild-type 5-HT2A): 6.97 ± 0.37
head twitch response elicited by (±)-DOI (male C57BL/6J mice [3]): significantly attenuated the head twitch response
pKi 5-HT1A (5-HT1A; [10]): <5.0^(3)
pKi 5-HT7 (5-HT7; [10]): 6.29^(4)
pKi D3 (D3): 6.21 ^(3)
pKi D2L (D2L; [^3H]spiperone, mean of n independent experiments): <5.0^(3)
inverse agonist efficacy at C322K^6.34 5-HT2ARs (reduction of basal IP1 accumulation) (C322K^6.34 5-HT2AR): ~60%
pIC50 inverse agonism at C322K^6.34 5-HT2ARs (C322K^6.34 5-HT2AR): 6.81±0.39
pKb at H1Rs (human wild-type H1R): 5.82±0.22
locomotor activity, compound administered alone (male C57BL/6J mice [4]): preserving general locomotor ability

SMILES: [3H]C([3H])(N1CCC(C(=O)c2ccc(F)cc2)CC1)C([3H])([3H])n1c(=O)[nH]c2ccccc2c1=O [[^3H]Ketanserin]
specific binding to W158I^4.56 H1Rs (W158I^4.56 H1R [8]): cannot be detected
specific binding to D231F^5.35 5-HT2ARs (D231F^5.35 5-HT2AR): no specific binding is detected

SMILES: NCCc1c[nH]cn1 [histamine]
IP1 accumulation at W158I^4.56 H1Rs in response to histamine (W158I^4.56 H1R [9]): unable to stimulate IP1 accumulation
